According to the METLIN SMRT retention time set (Domingo-Almenara et al. 2019):

Assay: gradient 5% acetonitrile 3 min, to 50% in 2 min, to 85% in 15 min, held 3 min, 100 µL/min
Details: column: Zorbax Extend-C18 2.1 x 50 mm; eluents: water / acetonitrile, 0.1% formic acid
Summary of the method: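 Retention time was recorded from adduct peaks, which were picked computationally and each inspected manually. Pure standards ran in mixtures of ~100 molecules on HPLC coupled to a quadrupole time-of-flight mass spectrometer, in positive and negative ionization mode, through a Zorbax Extend-C18 column (2.1 × 50 mm, 1.8 μm) at 100 μL/min. Eluents were water and acetonitrile, each with 0.1% formic acid.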

With `CCOC(=O)c1nc(NCCCN2CCN(Cc3ccccc3)CC2)c2ccccc2n1` the RP-LC retention time was 588 s.
Compound `CCN(CC)CCNC(=O)C1CCN(c2ccc(-c3cccs3)nn2)CC1` has an RP-LC retention time of 556 s.
Work on `Cc1ccc2c(Nc3cc(F)cc(F)c3)c(C(=O)N3CCSCC3)cnc2n1` yielded an RP-LC retention time of 645 s.
`Cc1nc2cccnc2n1CC1CCCN(S(=O)(=O)Cc2ccccc2)C1` (configuration not stated) gave an RP-LC retention time of 654 s.
For `CN(C)CCNC(=O)c1ccc(CS(=O)Cc2ccccc2Cl)o1` (configuration not stated), the RP-LC retention time was 597 s.
`CC(C)CN1CCN(C(=O)c2cn3cc(Cl)ccc3n2)CC1` gave an RP-LC retention time of 577 s.
`CC1CCN(C(=O)c2cc(S(=O)(=O)N(C)CC(=O)NC(C)C)cn2C)CC1` showed an RP-LC retention time of 723 s.
Compound `Cc1cccc(OCC(=O)N2CC(CN(C)C)C3(CCOCC3)C2)c1` (configuration not stated) has an RP-LC retention time of 598 s.
Compound `Cc1noc2ncnc(N3CCCC(C(=O)N4CCN(c5ccc(Cl)cc5)CC4)C3)c12` (configuration not stated) has an RP-LC retention time of 931 s.
`O=C(Cn1c2c(c(=O)n(C3CCCCC3)c1=O)CCC2)NCc1ccc2c(c1)OCO2` showed an RP-LC retention time of 799 s.
`CCCN1CCN(C(=O)CC(c2ccc(C)cc2)N2Cc3ccccc3C2=O)CC1` (configuration not stated) gave an RP-LC retention time of 666 s.
`COc1ccc(OC)c(NC(=O)Cc2csc3nc(-c4cccc(Br)c4)cn23)c1` showed an RP-LC retention time of 1010 s.
Compound `COc1ccccc1CNC(=O)Cn1nc2c(N3CCC(C)CC3)nccn2c1=O` has an RP-LC retention time of 745 s.
`Cc1cccc(N2CCN(C(=O)C3CCCN(c4cc(=O)n(C)c(=O)n4C)C3)CC2)c1C` (configuration not stated) showed an RP-LC retention time of 874 s.
In the case of `COc1ccc(S(=O)(=O)CCc2noc(C(=O)NCc3cc(OC)c(OC)c(OC)c3)n2)cc1`, the RP-LC retention time is reported as 790 s.
For `CCOc1ccc(-c2nc(C3CC(=O)N(c4ccc(OC)cc4)C3)no2)cc1OCC` (configuration not stated), the RP-LC retention time was 927 s.
For `CSc1ccc(-c2nc3cnccn3c2Nc2cccc(Cl)c2C)cc1`, the RP-LC retention time was 1060 s.
Compound `Cc1nnc(NC(=O)c2ccc(OCc3nc(-c4ccco4)cs3)cc2)s1` has an RP-LC retention time of 815 s.
`COc1ccc(-c2noc(C3CCCN3C(=O)c3c(OC)cccc3OC)n2)cc1` (configuration not stated) gave an RP-LC retention time of 960 s.
Work on `COc1ccc(C)cc1NC(=O)C1CCc2nc(N3CCOCC3)ncc2C1` (configuration not stated) yielded an RP-LC retention time of 832 s.
With `CCCCn1c(=O)c2ccccc2n(Cc2nc(-c3ccc(OC)cc3)no2)c1=O` the RP-LC retention time was 1160 s.
Compound `N#C/C(=C\c1c[nH]c2ccccc12)C(N)=O` has an RP-LC retention time of 713 s.
With `COc1cccc(NC(=O)Cn2c(=O)n(-c3ccccc3)c(=O)c3c2cc(C)n3C)c1` the RP-LC retention time was 789 s.
With `CCNC(=O)c1cc2cc(Cl)ccc2[nH]1` the RP-LC retention time was 806 s.
For `COc1cccc(CNC(=O)c2ccc3ncnc(N4CCCC4)c3c2)c1`, the RP-LC retention time was 621 s.
Compound `CCCn1ccc2sc(C)c(C(=O)N3CCCCC3)c2c1=O` has an RP-LC retention time of 760 s.
`CCc1noc(CN2N=C(C(=O)N3CCC(C)CC3)S(=O)(=O)c3ccccc32)n1` showed an RP-LC retention time of 886 s.
Work on `CC(NC(=O)C1CCN(Cc2cn(C)c3ccc(Cl)cc23)CC1)c1ccccc1` (configuration not stated) yielded an RP-LC retention time of 727 s.
In the case of `COC(=O)c1cnc(N2CCN(c3ccccc3OC)CC2)c2ccccc12`, the RP-LC retention time is reported as 1030 s.
In the case of `Cc1ccc(-c2cc(C(=O)N3CCN(c4ccc(N5CCOCC5)nn4)CC3)[nH]n2)cc1C`, the RP-LC retention time is reported as 657 s.
In the case of `CCCN1CCN(c2cc(C(=O)O)c3cc(NC(=O)c4ccc(Br)cc4)ccc3n2)CC1`, the RP-LC retention time is reported as 628 s.
`Cc1sc2ccn(CC(C)C)c(=O)c2c1C(=O)N(C)Cc1ccccc1` gave an RP-LC retention time of 917 s.
For `CC(=O)Nc1nonc1-c1nnc(SCC(=O)Nc2nc(-c3ccccc3)cs2)n1C`, the RP-LC retention time was 833 s.
`CCN(C(=O)Cn1nc2cc(-c3ccccc3)nc(C)n2c1=O)c1ccccc1` gave an RP-LC retention time of 985 s.
For `CCOC(=O)c1ccc(NC(=O)C2CCCN(c3ncnc4c3nc3n4CCCCC3)C2)cc1` (configuration not stated), the RP-LC retention time was 873 s.
`Cc1nc2ccn(Cc3ccco3)c(=O)c2cc1C(=O)N1CCN(c2ccccn2)CC1` gave an RP-LC retention time of 602 s.
Work on `Cc1nnc(N2CCCC(C(=O)NCc3ccc(F)cc3)C2)c2nn(-c3ccccc3)c(C)c12` (configuration not stated) yielded an RP-LC retention time of 720 s.
`CN1C(=O)Cc2cc(C(=O)NC3CCN(Cc4ccccc4)CC3)ccc21` gave an RP-LC retention time of 892 s.
Work on `Cc1cccc(N2CCN(C(=O)CN3C(=O)CN(C)C(=O)c4ccccc43)CC2)c1C` yielded an RP-LC retention time of 812 s.
`COCCc1noc(C2Cc3ccccc3N2C(=O)NCc2cccc(OC)c2)n1` (configuration not stated) gave an RP-LC retention time of 618 s.
Compound `CN1C(=O)COc2cc(-c3noc(C(=O)NCCCN4CCCC4)n3)ccc21` has an RP-LC retention time of 604 s.
Compound `N#Cc1cn(CC(=O)NCc2ccc3c(c2)OCCCO3)c2ccccc12` has an RP-LC retention time of 842 s.
With `CCCCNC(=O)c1cc(NC(=O)CC)cc2nc(C)ccc12` the RP-LC retention time was 595 s.
`CCN1CCCn2cc(S(=O)(=O)Nc3ccc(Cl)cc3C)cc2C1=O` gave an RP-LC retention time of 790 s.
Compound `O=C(NCc1ccccn1)c1c2c(nc3ccccc13)C(=O)N(C1CCCCC1)C2` has an RP-LC retention time of 626 s.
`CSc1ccc(CNC(=O)CCc2c(-c3ccc(Br)cc3)nc3ccccn23)cc1` gave an RP-LC retention time of 714 s.
In the case of `Cc1ccsc1C(=O)NCCc1cn(CC(C)C)c2ncccc12`, the RP-LC retention time is reported as 844 s.
With `Cc1ccc(Nc2nc(N3CCN(C(=O)c4ccco4)CC3)nc3[nH]ncc23)cc1` the RP-LC retention time was 616 s.
In the case of `CC(=O)c1sc(NC(=O)c2ccccc2[N+](=O)[O-])nc1C`, the RP-LC retention time is reported as 679 s.
With `CC1=NS(=O)(=O)N(C)C=C1C(=O)OCc1cc(F)cc(F)c1` the RP-LC retention time was 934 s.
`O=C(Nc1cnn(-c2ncc(N3CCSCC3)cn2)c1)C1CCOC1` (configuration not stated) showed an RP-LC retention time of 640 s.
For `COc1ccc(-c2nc3cnccn3c2NCCC(=O)NC(C)C)cc1`, the RP-LC retention time was 609 s.
Compound `CCOC(=O)c1noc2nc(C)nc(N3CCc4ccccc4C3)c12` has an RP-LC retention time of 1120 s.
`Cc1ccc(-c2ncccc2CNS(=O)(=O)c2ccc(C)cc2)cc1` showed an RP-LC retention time of 684 s.
Work on `O=C(c1ccccc1Br)N(Cc1cccc(Cl)c1)C1CCS(=O)(=O)C1` (configuration not stated) yielded an RP-LC retention time of 846 s.
`COc1ccc(CCNC(=O)c2ccc3c(c2)NC(=O)C2CCCCN32)cc1OC` (configuration not stated) gave an RP-LC retention time of 731 s.
`CN1CCCC1c1nc(C2CN(C(=O)Cn3c(=O)oc4ccccc43)C2)no1` (configuration not stated) gave an RP-LC retention time of 582 s.
With `N#Cc1cnn2ccn(C3OC(CO)C(O)C3O)c12` (configuration not stated) the RP-LC retention time was 614 s.
`CCn1c(=O)sc2cc(S(=O)(=O)N3CCC(C(=O)Nc4nc(C)cs4)CC3)ccc21` gave an RP-LC retention time of 827 s.
Work on `Cc1cc(NS(=O)(=O)c2ccc(Nc3nc(-c4ccc(Cl)c(Cl)c4)cs3)cc2)no1` yielded an RP-LC retention time of 1130 s.
Work on `CCCC(=O)N1CCCC(c2nc(CNC(=O)C(C)C)cs2)C1` (configuration not stated) yielded an RP-LC retention time of 671 s.
In the case of `CCn1c(C2CCN(S(=O)(=O)c3ccc(C(C)C)cc3)C2)nc2cccnc21` (configuration not stated), the RP-LC retention time is reported as 906 s.
Work on `CC(C)c1c(C(=O)O)nnn1-c1ccc(F)c(F)c1` yielded an RP-LC retention time of 762 s.
For `O=C(Cc1nc(-c2ccccc2)n[nH]1)NC1CCCCC1`, the RP-LC retention time was 714 s.
In the case of `Cn1cc(C(=O)N2CCCC(c3nnc4n3CCN(C3CCCC3)C4)C2)cn1` (configuration not stated), the RP-LC retention time is reported as 553 s.
`CCOC(=O)c1[nH]c(C)c(CCC(=O)N2CCC(C(=O)NCCc3c(C)noc3C)CC2)c1C` showed an RP-LC retention time of 695 s.
Work on `COCCCN1CN=C(Nc2nc(C)c3cc(C)ccc3n2)NC1` yielded an RP-LC retention time of 555 s.
